Results on 40 molecules are retold here after patent US12448392B2, “Spiropiperidine derivatives” (89BIO LTD, priority 2016, dated 2025).

Molecules are shown by their SMILES. Structures can show the parent of a compound that is named as a salt.

The first assay deals with T1, recombinant human baculovirus-expressed GST-tagged FASN (Homo sapiens, UniProt P49327).
T1 construct: GST
T1 sequence (P49327 whole entry): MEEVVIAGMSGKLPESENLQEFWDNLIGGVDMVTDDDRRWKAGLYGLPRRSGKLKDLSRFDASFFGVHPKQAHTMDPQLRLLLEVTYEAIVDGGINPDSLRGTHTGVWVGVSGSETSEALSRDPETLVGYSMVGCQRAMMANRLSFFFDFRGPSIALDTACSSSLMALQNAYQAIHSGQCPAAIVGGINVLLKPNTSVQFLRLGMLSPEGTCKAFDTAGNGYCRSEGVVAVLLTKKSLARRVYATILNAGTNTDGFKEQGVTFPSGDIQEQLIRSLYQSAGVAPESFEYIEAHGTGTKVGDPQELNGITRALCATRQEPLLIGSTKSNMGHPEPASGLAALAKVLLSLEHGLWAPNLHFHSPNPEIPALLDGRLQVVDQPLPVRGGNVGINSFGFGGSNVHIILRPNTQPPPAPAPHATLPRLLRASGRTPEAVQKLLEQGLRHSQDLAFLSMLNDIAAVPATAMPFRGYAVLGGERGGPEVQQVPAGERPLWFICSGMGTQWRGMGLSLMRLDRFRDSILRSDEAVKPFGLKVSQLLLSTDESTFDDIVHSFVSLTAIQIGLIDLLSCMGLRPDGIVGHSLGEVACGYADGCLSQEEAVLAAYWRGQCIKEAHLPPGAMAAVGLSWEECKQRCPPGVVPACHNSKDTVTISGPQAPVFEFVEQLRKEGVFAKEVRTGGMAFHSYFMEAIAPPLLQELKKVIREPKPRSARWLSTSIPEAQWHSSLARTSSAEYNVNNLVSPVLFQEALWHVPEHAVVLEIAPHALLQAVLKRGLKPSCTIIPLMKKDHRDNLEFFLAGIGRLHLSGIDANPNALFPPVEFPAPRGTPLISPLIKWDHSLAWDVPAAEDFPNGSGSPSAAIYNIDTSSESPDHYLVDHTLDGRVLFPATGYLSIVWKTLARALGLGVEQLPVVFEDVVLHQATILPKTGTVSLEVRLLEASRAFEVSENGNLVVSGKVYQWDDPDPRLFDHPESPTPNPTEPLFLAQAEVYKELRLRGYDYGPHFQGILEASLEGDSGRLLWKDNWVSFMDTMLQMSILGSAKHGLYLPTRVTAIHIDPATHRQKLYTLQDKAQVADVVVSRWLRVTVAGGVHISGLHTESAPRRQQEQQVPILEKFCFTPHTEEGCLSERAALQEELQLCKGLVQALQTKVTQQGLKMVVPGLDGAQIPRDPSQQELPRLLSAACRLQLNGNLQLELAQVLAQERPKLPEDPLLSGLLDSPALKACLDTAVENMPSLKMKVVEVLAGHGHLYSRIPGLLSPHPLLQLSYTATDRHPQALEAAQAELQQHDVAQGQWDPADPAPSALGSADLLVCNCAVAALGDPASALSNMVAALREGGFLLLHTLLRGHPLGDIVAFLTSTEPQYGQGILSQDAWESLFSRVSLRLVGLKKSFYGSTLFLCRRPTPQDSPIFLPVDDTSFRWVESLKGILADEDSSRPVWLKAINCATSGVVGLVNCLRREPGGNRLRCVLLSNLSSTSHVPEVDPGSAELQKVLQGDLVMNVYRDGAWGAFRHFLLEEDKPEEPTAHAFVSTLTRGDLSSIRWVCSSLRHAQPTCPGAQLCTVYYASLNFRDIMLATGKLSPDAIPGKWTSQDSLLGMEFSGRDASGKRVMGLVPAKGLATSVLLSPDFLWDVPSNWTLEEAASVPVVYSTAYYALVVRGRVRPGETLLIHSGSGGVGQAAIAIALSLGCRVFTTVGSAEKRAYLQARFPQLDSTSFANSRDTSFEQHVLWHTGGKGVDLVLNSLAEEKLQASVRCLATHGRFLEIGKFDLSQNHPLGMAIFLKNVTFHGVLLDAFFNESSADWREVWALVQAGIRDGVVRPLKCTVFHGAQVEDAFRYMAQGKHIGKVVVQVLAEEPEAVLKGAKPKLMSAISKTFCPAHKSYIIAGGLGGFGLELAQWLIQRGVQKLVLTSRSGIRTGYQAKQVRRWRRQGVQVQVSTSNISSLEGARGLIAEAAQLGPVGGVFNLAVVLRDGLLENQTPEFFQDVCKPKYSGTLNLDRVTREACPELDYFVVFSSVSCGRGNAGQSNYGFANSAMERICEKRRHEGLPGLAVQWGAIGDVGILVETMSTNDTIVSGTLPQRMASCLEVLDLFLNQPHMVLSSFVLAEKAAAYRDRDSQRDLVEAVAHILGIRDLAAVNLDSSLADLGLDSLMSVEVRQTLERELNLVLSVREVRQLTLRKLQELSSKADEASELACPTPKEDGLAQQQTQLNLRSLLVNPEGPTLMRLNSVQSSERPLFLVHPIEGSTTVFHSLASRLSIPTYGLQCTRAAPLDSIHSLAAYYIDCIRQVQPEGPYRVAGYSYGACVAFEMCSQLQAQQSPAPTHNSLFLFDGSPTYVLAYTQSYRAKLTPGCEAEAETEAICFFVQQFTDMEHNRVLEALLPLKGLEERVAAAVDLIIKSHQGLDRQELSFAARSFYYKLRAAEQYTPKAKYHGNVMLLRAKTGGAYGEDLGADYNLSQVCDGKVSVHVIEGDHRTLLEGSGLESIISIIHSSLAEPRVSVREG
Description: biochemical.
Settings: not given
With `CCC(=O)N1CCC2(CC1)OCc1cc(-c3ccccn3)ccc1O2` [Example 218, 1-[6-(2-Pyridyl)spiro[4H-1,3-benzodioxine-2,4′-piperidine]-1′-yl]propan-1-one, HCl], the IC50 is 1000 to 10000 nM.
Regarding `O=C(C1CC1)N1CCC2(CC1)OCc1cc(-c3ccccn3)ccc1O2` [Example 219, Cyclopropyl-[6-(2-pyridyl)spiro[4H-1,3-benzodioxine-2,4′-piperidine]-1′-yl]methanone, HCl], the IC50 was 1000 to 10000 nM.
Take `O=C([C@H]1CCCO1)N1CCC2(CC1)OCc1cc(-c3ccccn3)ccc1O2` [Example 220, [6-(2-Pyridyl)spiro[4H-1,3-benzodioxine-2,4′-piperidine]-1′-yl]-[(2R)-tetrahydrofuran-2-yl]methanone, HCl]: the IC50 lay within 100 to 999 nM.
On to `CCC(=O)N1CCC2(CC1)OCc1cc(-c3cccnc3)ccc1O2` [Example 224, 1-[6-(3-Pyridyl)spiro[4H-1,3-benzodioxine-2,4′-piperidine]-1′-yl]propan-1-one, HCl], for which the IC50 was in the range of 1000 to 10000 nM.
Same read-out and setting: for `O=C(C1CC1)N1CCC2(CC1)OCc1cc(-c3cccnc3)ccc1O2` [Example 225, Cyclopropyl-[6-(3-pyridyl)spiro[4H-1,3-benzodioxine-2,4′-piperidine]-1′-yl]methanone, HCl] the value was 1000 to 10000 nM.
Same read-out and setting: the same measure for `O=C([C@H]1CCCO1)N1CCC2(CC1)OCc1cc(-c3cccnc3)ccc1O2` [Example 229, [6-(3-Pyridyl)spiro[4H-1,3-benzodioxine-2,4′-piperidine]-1′-yl]-[(2R)-tetrahydrofuran-2-yl]methanone]: 100 to 999 nM; for `O=C(C1CC1)N1CCC2(CC1)OCc1cc(-c3ccncc3)ccc1O2` [Example 230, Cyclopropyl-[6-(4-pyridyl)spiro[4H-1,3-benzodioxine-2,4′-piperidine]-1′-yl]-methanone, HCl]: 1000 to 10000 nM; for `O=C([C@H]1CCCO1)N1CCC2(CC1)OCc1cc(-c3ccncc3)ccc1O2` [Example 231, [6-(4-Pyridyl)spiro[4H-1,3-benzodioxine-2,4′-piperidine]-1′-yl]-[(2R)-tetrahydrofuran-2-yl]methanone, HCl]: 100 to 999 nM.
For the molecule `CCC(=O)N1CCC2(CC1)OCc1cc(-c3ccncc3)ccc1O2` [Example 232, 1-[6-(4-Pyridyl)spiro[4H-1,3-benzodioxine-2,4′-piperidine]-1′-yl]propan-1-one, HCl], the IC50 fell in the range of 1000 to 10000 nM.
The same measure, in the same setting: for `COc1cc(-c2ccc3cccnc3c2C)cc2c1OC1(CCN(C(N)=O)CC1)OC2` [Example 247, 8-Methoxy-6-(8-methyl-7-quinolyl)spiro[4H-1,3-benzodioxine-2,4′-piperidine]-1′-carboxamide] the value was 1000 to 10000 nM.
The same measure, in the same setting: for `CONC(=O)N1CCC2(CC1)OCc1cc(-c3ccc4c(C)nccc4c3)cc(OC)c1O2` [Example 248] the value was 1000 to 10000 nM.

Staying with this assay, now noted: 5 nM FASN, 150 μM NADPH, 10 μM acetyl-CoA, 25 μM malonyl-CoA, 90 minutes incubation; read-out: IC50 data for Compounds of Formula I, Activity.
With `CCNC(=O)N1CCC2(CCc3cc(-c4ccc5cnc(C)cc5c4)ccc3O2)CC1` [Example 208, N-Ethyl-6-(3-methyl-6-isoquinolyl)spiro[chromane-2,4′-piperidine]-1′-carboxamide], the IC50 is 100 to 999 nM.
Take `CONC(=O)N1CCC2(CCc3cc(-c4ccc5cnc(C)cc5c4)ccc3O2)CC1` [Example 209, N-Methoxy-6-(3-methyl-6-isoquinolyl)spiro[chromane-2,4′-piperidine]-1′-carboxamide]: the IC50 lay in the range of 1 to 99 nM.
Turning to `CONC(=O)N1CCC2(CCc3cc(-c4ccc5cccnc5c4OC)ccc3O2)CC1` [Example 210, N-Methoxy-6-(8-methoxy-7-quinolyl)spiro[chromane-2,4′-piperidine]-1′-carboxamide], the IC50 lay in the range of 1 to 99 nM.
On to `CCONC(=O)N1CCC2(CCc3cc(-c4ccc5cccnc5c4OC)ccc3O2)CC1` [Example 211, N-Ethoxy-6-(8-methoxy-7-quinolyl)spiro[chromane-2,4′-piperidine]-1′-carboxamide], for which the IC50 lay in the range of 1 to 99 nM.
Still for that read-out and setting: for `Cc1c(-c2ccc3c(c2)C(=O)CC2(CCN(C(N)=O)CC2)O3)ccc2cccnc12` [Example 212, 6-(8-methyl-7-quinolyl)-4-oxo-spiro[chromane-2,4′-piperidine]-1′-carboxamide] the value was 100 to 999 nM; for `Cc1c(-c2ccc3c(c2)C(O)CC2(CCN(C(N)=O)CC2)O3)ccc2cccnc12` (stereo not shown) [Example 213, 4-Hydroxy-6-(8-methyl-7-quinolyl)spiro[chromane-2,4′-piperidine]-1′-carboxamide], 100 to 999 nM.
The same measure, in the same setting: for `CCC(=O)N1CCC2(CCc3cc(-c4ccccn4)ccc3O2)CC1` [Example 215, 1-[6-(2-Pyridyl)spiro[chromane-2,4′-piperidine]-1′-yl]propan-1-one, HCl] the value was 1000 to 10000 nM.
Still for that read-out and setting: for `O=C(C1CC1)N1CCC2(CCc3cc(-c4ccccn4)ccc3O2)CC1` [Example 216, Cyclopropyl-[6-(2-pyridyl)spiro[chromane-2,4′-piperidine]-1′-yl]methanone, HCl] the value was 1000 to 10000 nM; for `O=C([C@H]1CCCO1)N1CCC2(CCc3cc(-c4ccccn4)ccc3O2)CC1` [Example 217, [6-(2-Pyridyl)spiro[chromane-2,4′-piperidine]-1′-yl]-[(2R)-tetrahydrofuran-2-yl]methanone, HCl], 1000 to 10000 nM.
In the case of `CCC(=O)N1CCC2(CCc3cc(-c4cccnc4)ccc3O2)CC1` [Example 221, 1-[6-(3-Pyridyl)spiro[chromane-2,4′-piperidine]-1′-yl]propan-1-one, HCl], the IC50 is 1000 to 10000 nM.
Same read-out and setting: the same measure for `O=C(C1CC1)N1CCC2(CCc3cc(-c4cccnc4)ccc3O2)CC1` [Example 222, Cyclopropyl-[6-(3-pyridyl)spiro[chromane-2,4′-piperidine]-1′-yl]methanone, HCl]: 1000 to 10000 nM.
Still for that read-out and setting: for `O=C([C@H]1CCCO1)N1CCC2(CCc3cc(-c4cccnc4)ccc3O2)CC1` [Example 223, [6-(3-Pyridyl)spiro[chromane-2,4′-piperidine]-1′-yl]-[(2R)-tetrahydrofuran-2-yl]methanone, HCl] the value was 100 to 999 nM; for `CCC(=O)N1CCC2(CCc3cc(-c4ccncc4)ccc3O2)CC1` [Example 226, 1-[6-(4-Pyridyl)spiro[chromane-2,4′-piperidine]-1′-yl]propan-1-one, HCl], 1000 to 10000 nM.
As to `O=C(C1CC1)N1CCC2(CCc3cc(-c4ccncc4)ccc3O2)CC1` [Example 227, Cyclopropyl-[6-(4-pyridyl)spiro[chromane-2,4′-piperidine]-1′-yl]methanone, HCl], the IC50 lay within 1000 to 10000 nM.
On the same count and under the same terms, for `O=C([C@H]1CCCO1)N1CCC2(CCc3cc(-c4ccncc4)ccc3O2)CC1` [Example 228, [6-(4-Pyridyl)spiro[chromane-2,4′-piperidine]-1′-yl]-[(2R)-tetrahydrofuran-2-yl]methanone, HCl] the value was 100 to 999 nM.
Still for that read-out and setting: for `Cc1nccc2cc(-c3cc4c(cc3F)OC3(CC4)CCN(C(N)=O)CC3)ccc12` [Example 234, 7-Fluoro-6-(1-methyl-6-isoquinolyl)spiro[chromane-2,4′-piperidine]-1′-carboxamide] the value was 1000 to 10000 nM.
Still for that read-out and setting: for `NC(=O)N1CCC2(CCc3cc(-c4cc5ccccc5o4)ccc3O2)CC1` [Example 235, 6-(Benzofuran-2-yl)spiro[chromane-2,4′-piperidine]-1′-carboxamide] the value was 1000 to 10000 nM; for `NC(=O)N1CCC2(CCc3cc(-c4cc5ccccc5[nH]4)ccc3O2)CC1` [Example 236, 6-(1H-Indol-2-yl)spiro[chromane-2,4′-piperidine]-1′-carboxamide], 1000 to 10000 nM.
Regarding `Cc1c(-c2cc(F)c3c(c2)CCC2(CCN(C(N)=O)CC2)O3)ccc2cccnc12` [Example 237, 8-Fluoro-6-(8-methyl-7-quinolyl)spiro[chromane-2,4′-piperidine]-1′-carboxamide], the IC50 was in the range of 1 to 99 nM.
On the same count and under the same terms, for `CONC(=O)N1CCC2(CCc3cc(-c4ccc5cccnc5c4C)cc(F)c3O2)CC1` [Example 238, 8-Fluoro-N-methoxy-6-(8-methyl-7-quinolyl)spiro[chromane-2,4′-piperidine]-1′-carboxamide] the value was 1 to 99 nM.
For the molecule `Cc1nccc2cc(-c3ccc4c(c3F)CCC3(CCN(C(N)=O)CC3)O4)ccc12` [Example 239, 5-Fluoro-6-(1-methyl-6-isoquinolyl)spiro[chromane-2,4′-piperidine]-1′carboxamide], the half-maximal inhibitory concentration (IC50) lay within 1000 to 10000 nM.
`Cc1c(-c2ccc3cccnc3c2C)ccc2c1CCC1(CCN(C(N)=O)CC1)O2` [Example 240, 5-Methyl-6-(8-methyl-7-quinolyl)spiro[chromane-2,4′-piperidine]-1′-carboxamide]: the IC50 lay in the range of 1000 to 10000 nM.
On the same count and under the same terms, the same measure for `Cc1c(-c2ccc3c(C)nccc3c2)ccc2c1CCC1(CCN(C(N)=O)CC1)O2` [Example 241, 5-methyl-6-(1-methyl-6-isoquinolyl)spiro[chromane-2,4′-piperidine]-1′-carboxamide]: 1000 to 10000 nM; for `CONC(=O)N1CCC2(CCc3cc(-c4ccc5c(C)nccc5c4)cc(F)c3O2)CC1` [Example 242]: 1 to 99 nM.
On the same count and under the same terms, the same measure for `Cc1c(-c2ccc3c(c2F)CCC2(CCN(C(N)=O)CC2)O3)ccc2cccnc12` [Example 243, 5-Fluoro-6-(8-methyl-7-quinolyl)spiro[chromane-2,4′-piperidine]-1′-carboxamide]: 100 to 999 nM.
Take `Cc1cc2c(cc1-c1ccc3cccnc3c1C)CCC1(CCN(C(N)=O)CC1)O2` [Example 244, 7-Methyl-6-(8-methyl-7-quinolyl)spiro[chromane-2,4′-piperidine]-1′-carboxamide]: the IC50 was 1000 to 10000 nM.
Same read-out and setting: for `CONC(=O)N1CCC2(CCc3cc(-c4ccc5cccnc5c4C)c(C)cc3O2)CC1` [Example 245, N-methoxy-7-methyl-6-(8-methyl-7-quinolyl)spiro[chromane-2,4′-piperidine]-1′-carboxamide] the value was 100 to 999 nM; for `CONC(=O)N1CCC2(CCc3cc(-c4ccc5c(C)nccc5c4)c(C)cc3O2)CC1` [Example 246, N-Methoxy-7-methyl-6-(1-methyl-6-isoquinolyl)spiro[chromane-2,4′-piperidine]-1′-carboxamide], 100 to 999 nM; for `Cc1c(-c2cc(Cl)c3c(c2)CCC2(CCN(C(N)=O)CC2)O3)ccc2cccnc12` [Example 249, 8-chloro-6-(8-methyl-7-quinolyl)spiro[chromane-2,4′-piperidine]-1′-carboxamide], 1000 to 10000 nM.

What is called IC50 is the concentration that inhibits the measured activity by half.
